Assay results from PubChem BioAssay AID248 (DTP/NCI, 2004).
“And” between values parts separate entries of the source, which are not always exact repeats. Equal entries are not always repeated. Toxic doses and inconclusive results are not listed. No stated cut-off is given here; in the data, active means T/C of 150% or more; inactive means T/C below 125%. Square brackets hold non-standard residues; d marks the D form. Peptide text beside a SMILES is read from it. * marks the point of attachment. ξ: configuration not given here. ξH = NC(Cc1c[nH]cn1)C(=O)O; Cbz = O=C(OCc1ccccc1)*

Test system: L1210 leukemia ip in BDF1 mice, survival T/C
Assay: NCI In Vivo Anticancer Drug Screen. Data for tumor model L1210 Leukemia (intraperitoneal) in B6D2F1 (BDF1) mice
Details: endpoint: mean survival time, higher = longer survival
In short: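 Transplantable tumor model; survival measured in treated vs vehicle control mice. Value = treated/control.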

[1] = dose: 100.0 mg/kg/injection, schedule: Q01DX009 (ip), vehicle: Klucel (hydroxypropylcellulose) (HPC)
[2] = dose: 200.0 mg/kg/injection, schedule: Q01DX009 (ip), vehicle: Klucel (hydroxypropylcellulose) (HPC)
[3] = dose: 400.0 mg/kg/injection, schedule: Q01DX009 (ip), vehicle: Klucel (hydroxypropylcellulose) (HPC)
[4] = dose: 100.0 mg/kg/injection, schedule: Q01DX001 (ip), vehicle: Klucel (hydroxypropylcellulose) (HPC)
[5] = dose: 100.0 mg/kg/injection, schedule: Q01DX001 (ip), vehicle: carboxymethylcellulose (CMC)
[6] = dose: 200.0 mg/kg/injection, schedule: Q01DX001 (ip), vehicle: carboxymethylcellulose (CMC)
[7] = dose: 400.0 mg/kg/injection, schedule: Q01DX001 (ip), vehicle: carboxymethylcellulose (CMC)
[8] = dose: 100.0 mg/kg/injection, schedule: Q01DX009 (ip), vehicle: saline with Tween-80
[9] = dose: 200.0 mg/kg/injection, schedule: Q01DX009 (ip), vehicle: saline with Tween-80
[10] = dose: 12.5 mg/kg/injection, schedule: Q01DX009 (ip), vehicle: Klucel (hydroxypropylcellulose) (HPC)
[11] = dose: 25.0 mg/kg/injection, schedule: Q01DX009 (ip), vehicle: Klucel (hydroxypropylcellulose) (HPC)
[12] = dose: 5.0 mg/kg/injection, schedule: Q01DX001 (ip), vehicle: saline
[13] = dose: 10.0 mg/kg/injection, schedule: Q01DX001 (ip), vehicle: saline
[14] = dose: 100.0 mg/kg/injection, schedule: Q01DX001 (ip), vehicle: saline
[15] = dose: 100.0 mg/kg/injection, schedule: Q04DX003 (ip), vehicle: Klucel (hydroxypropylcellulose) (HPC)
[16] = dose: 200.0 mg/kg/injection, schedule: Q04DX003 (ip), vehicle: Klucel (hydroxypropylcellulose) (HPC)
[17] = dose: 400.0 mg/kg/injection, schedule: Q04DX003 (ip), vehicle: Klucel (hydroxypropylcellulose) (HPC)
[18] = dose: 50.0 mg/kg/injection, schedule: Q01DX001 (ip), vehicle: carboxymethylcellulose (CMC)
[19] = dose: 400.0 mg/kg/injection, schedule: Q01DX009 (ip), vehicle: saline with Tween-80
[20] = dose: 12.5 mg/kg/injection, schedule: Q04DX003 (ip), vehicle: Klucel (hydroxypropylcellulose) (HPC)
[21] = dose: 25.0 mg/kg/injection, schedule: Q04DX003 (ip), vehicle: Klucel (hydroxypropylcellulose) (HPC)
[22] = dose: 50.0 mg/kg/injection, schedule: Q04DX003 (ip), vehicle: Klucel (hydroxypropylcellulose) (HPC)

Measured: T/C

CCCNC(=O)Oc1cccc2cccnc12
inactive: [1] 93 % of control and 95 % of control | dose: 100.0 mg/kg/injection, schedule: Q04DX002 (ip), vehicle: Klucel (hydroxypropylcellulose) (HPC) 97 % of control and 105 % of control | [2] 101 % of control and 112 % of control | dose: 200.0 mg/kg/injection, schedule: Q04DX002 (ip), vehicle: Klucel (hydroxypropylcellulose) (HPC) 102 % of control and 103 % of control | [3] 95 % of control

NN=C1c2ccccc2C(F)(F)c2ccccc21
inactive: dose: 50.0 mg/kg/injection, schedule: Q01DX001 (ip), vehicle: Klucel (hydroxypropylcellulose) (HPC) 95 % of control | [4] 95 % of control

CCCCCCCCCCCCCCCC[N+]1([O-])CCOCC1
inactive: dose: 12.5 mg/kg/injection, schedule: Q01DX009 (ip), vehicle: saline 96 % of control | dose: 25.0 mg/kg/injection, schedule: Q01DX009 (ip), vehicle: saline 102 % of control | dose: 50.0 mg/kg/injection, schedule: Q01DX009 (ip), vehicle: saline 98 % of control

Nc1[nH]c(=S)[nH]c(=O)c1N=Nc1c(Br)cc(S(N)(=O)=O)cc1Br
inactive: [5] 94 % of control | [6] 100 % of control | [7] 103 % of control

CC(C)N(C(=O)Nc1cc(C(F)(F)F)ccc1Cl)C1CCCCC1
inactive: [5] 95 % of control | dose: 100.0 mg/kg/injection, schedule: Q01DX009 (ip), vehicle: carboxymethylcellulose (CMC) 92 % of control and 88 % of control | dose: 100.0 mg/kg/injection, schedule: Q04DX002 (ip), vehicle: carboxymethylcellulose (CMC) 97 % of control | dose: 100.0 mg/kg/injection, schedule: Q04DX003 (ip), vehicle: carboxymethylcellulose (CMC) 96 % of control | [6] 90 % of control | dose: 200.0 mg/kg/injection, schedule: Q01DX009 (ip), vehicle: carboxymethylcellulose (CMC) 93 % of control and 100 % of control | dose: 200.0 mg/kg/injection, schedule: Q04DX002 (ip), vehicle: carboxymethylcellulose (CMC) 98 % of control and 108 % of control | dose: 200.0 mg/kg/injection, schedule: Q04DX003 (ip), vehicle: carboxymethylcellulose (CMC) 96 % of control | [7] 93 % of control | dose: 400.0 mg/kg/injection, schedule: Q01DX009 (ip), vehicle: carboxymethylcellulose (CMC) 95 % of control | dose: 400.0 mg/kg/injection, schedule: Q04DX002 (ip), vehicle: carboxymethylcellulose (CMC) 87 % of control and 90 % of control | dose: 400.0 mg/kg/injection, schedule: Q04DX003 (ip), vehicle: carboxymethylcellulose (CMC) 91 % of control

CC1(C#N)CC(C)(C)C(=O)N1 (stereo not given)
inactive: dose: 75.0 mg/kg/injection, schedule: Q01DX001 (ip), vehicle: saline 102 % of control | dose: 150.0 mg/kg/injection, schedule: Q01DX001 (ip), vehicle: saline 102 % of control | dose: 300.0 mg/kg/injection, schedule: Q01DX001 (ip), vehicle: saline 108 % of control

NC(=O)N/N=C(\CCl)c1ccccc1
inactive: dose: 12.0 mg/kg/injection, schedule: Q04DX003 (ip), vehicle: saline 93 % of control

COc1ccc(-c2nnc(-c3ccc(OC)c(Cl)c3)nn2)cc1Cl
inactive: [8] 86 % of control | [9] 86 % of control

Cc1ccc2nc(C#N)c(C#N)nc2c1
inactive: dose: 6.25 mg/kg/injection, schedule: Q01DX009 (ip), vehicle: Klucel (hydroxypropylcellulose) (HPC) 106 % of control | [10] 97 % of control | [11] 95 % of control and 89 % of control

C/C(=N/N(C)C)c1cccc(C(F)(F)F)c1
inactive: dose: 100.0 mg/kg/injection, schedule: Q04DX003 (ip), vehicle: saline 98 % of control | dose: 200.0 mg/kg/injection, schedule: Q04DX003 (ip), vehicle: saline 116 % of control

CCCCCC(C)N (stereo not given)
inactive: [12] 101 % of control | [13] 101 % of control | dose: 20.0 mg/kg/injection, schedule: Q01DX001 (ip), vehicle: saline 95 % of control | dose: 40.0 mg/kg/injection, schedule: Q01DX001 (ip), vehicle: saline 103 % of control | dose: 80.0 mg/kg/injection, schedule: Q01DX001 (ip), vehicle: saline 101 % of control

O=C(CNC(=O)OCc1ccccc1)NC(Cc1cnc[nH]1)C(=O)O (stereo not drawn) (Cbz-Gly-[ξH]-OH)
inactive: [14] 96 % of control | dose: 200.0 mg/kg/injection, schedule: Q01DX001 (ip), vehicle: saline 104 % of control | dose: 400.0 mg/kg/injection, schedule: Q01DX001 (ip), vehicle: saline 107 % of control

CCCCCCCCCCCCNc1c(OCC)c(=O)c1=O
inactive: [15] 88 % of control | [16] 91 % of control | [17] 93 % of control

CSc1ccccc1C(=O)O
inactive: [18] 100 % of control | [5] 100 % of control | [1] 97 % of control | [15] 103 % of control | [6] 94 % of control | [2] 95 % of control | [16] 94 % of control | [7] 96 % of control | [3] 100 % of control | [17] 110 % of control

O=C(NCc1cnccn1)c1ccccc1
inactive: [8] 104 % of control | [9] 98 % of control | [19] 92 % of control

COC(OC)c1nc(SC)[nH]c(=O)c1C
inactive: [8] 88 % of control | dose: 100.0 mg/kg/injection, schedule: Q04DX003 (ip), vehicle: saline with Tween-80 105 % of control | [9] 89 % of control | dose: 200.0 mg/kg/injection, schedule: Q04DX003 (ip), vehicle: saline with Tween-80 116 % of control | [19] 88 % of control | dose: 400.0 mg/kg/injection, schedule: Q04DX003 (ip), vehicle: saline with Tween-80 112 % of control

Oc1ccc(Nc2ccnc3cc(Cl)ccc23)cc1CN(CCCl)CCCl
inactive: [12] 109 % of control | [13] 109 % of control

Cc1cnc2c(N)nc(-c3ccccc3)nc2n1
inactive: [4] 94 % of control | dose: 200.0 mg/kg/injection, schedule: Q01DX001 (ip), vehicle: Klucel (hydroxypropylcellulose) (HPC) 103 % of control | dose: 400.0 mg/kg/injection, schedule: Q01DX001 (ip), vehicle: Klucel (hydroxypropylcellulose) (HPC) 100 % of control

C=CC(CO)N1CC1 (stereo not given)
inactive: dose: 25.0 mg/kg/injection, schedule: Q01DX001 (ip), vehicle: carboxymethylcellulose (CMC) 101 % of control | [18] 103 % of control

BrC(c1ccccc1)C(Br)[n+]1ccccc1 (stereo not given)
inactive: dose: 75.0 mg/kg/injection, schedule: Q01DX001 (ip), vehicle: other 107 % of control

CCCCC(/C=C/c1ccc2ccccc2n1)CC (stereo not given)
inactive: dose: 50.0 mg/kg/injection, schedule: Q01DX001 (ip), vehicle: saline 103 % of control | [14] 113 % of control

COc1ccc(/C=C/c2cccc[n+]2C)cc1
inactive: [10] 89 % of control | [20] 100 % of control | [11] 90 % of control | [21] 94 % of control | [22] 100 % of control

CSc1ncc(C(N)=O)c(N=C(C)C)n1
inactive: [20] 96 % of control | [21] 96 % of control | [22] 94 % of control | [15] 97 % of control
